Measurements reported in ChEMBL document CHEMBL1201862, “PubChem BioAssay data set” (2004).
Active and inactive are the calls of the source.

What was measured:
cells = format: functional
Coagulation factor XII = target: T1, Coagulation factor XII (Homo sapiens, UniProt P00748); format: functional;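 also: activated factor XIIa alpha cleaving a fluorogenic AMC peptide substrate; inhibitor potency from loss of enzyme activity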
T1 sequence (P00748 whole entry): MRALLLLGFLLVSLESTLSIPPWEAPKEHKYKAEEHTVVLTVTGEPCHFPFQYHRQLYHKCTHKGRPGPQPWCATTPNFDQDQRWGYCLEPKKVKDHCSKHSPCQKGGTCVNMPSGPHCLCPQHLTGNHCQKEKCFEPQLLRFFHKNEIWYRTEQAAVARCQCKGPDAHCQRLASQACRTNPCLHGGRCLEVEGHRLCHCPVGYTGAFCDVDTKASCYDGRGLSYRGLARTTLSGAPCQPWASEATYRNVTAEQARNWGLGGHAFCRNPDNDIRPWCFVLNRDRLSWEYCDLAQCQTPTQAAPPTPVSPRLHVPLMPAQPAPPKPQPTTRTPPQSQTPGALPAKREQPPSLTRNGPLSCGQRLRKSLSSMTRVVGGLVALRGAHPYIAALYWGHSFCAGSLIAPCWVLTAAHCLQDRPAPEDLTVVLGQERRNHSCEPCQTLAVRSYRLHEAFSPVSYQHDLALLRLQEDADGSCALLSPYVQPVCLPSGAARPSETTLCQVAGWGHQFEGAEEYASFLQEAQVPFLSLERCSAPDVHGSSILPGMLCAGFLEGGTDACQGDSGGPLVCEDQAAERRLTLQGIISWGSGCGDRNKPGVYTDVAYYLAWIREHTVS

[1] = target: T2, Neuropeptides B/W receptor type 1 (Homo sapiens, UniProt P48145); assay: Fluorescence-based dose response cell-based high throughput screening assay to identify antagonists of the G-protein coupled receptor 7 (GPR7). [Related pubchem assays: 1952 (Screening assay (GPR7 antagonists).), 1880 (Summary AID.)]; format: functional
T2 sequence (P48145 whole entry): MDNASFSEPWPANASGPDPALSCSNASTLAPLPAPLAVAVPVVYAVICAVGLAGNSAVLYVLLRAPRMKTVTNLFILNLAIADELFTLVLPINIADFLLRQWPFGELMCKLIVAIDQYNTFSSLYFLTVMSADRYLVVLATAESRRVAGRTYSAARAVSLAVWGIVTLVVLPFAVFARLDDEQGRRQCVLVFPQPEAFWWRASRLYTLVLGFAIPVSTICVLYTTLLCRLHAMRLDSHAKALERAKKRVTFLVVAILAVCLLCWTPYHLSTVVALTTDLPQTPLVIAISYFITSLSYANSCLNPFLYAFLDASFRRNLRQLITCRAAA

[2] = target: Melanin-concentrating hormone receptor 1 (Homo sapiens, UniProt Q99705); assay: Fluorescence-based counterscreen for antagonists of the G-protein coupled receptor 7 (GPR7): cell-based high throughput dose response assay to identify antagonists of the melanin-concentrating hormone receptor 1 (MCHR1).; format: functional
Cytochrome P450 3A4 = Cytochrome P450 3A4 (Homo sapiens, UniProt P08684);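 also: CYP3A4 tested as one member of a cytochrome P450 panel screen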
Cytochrome P450 1A2 = target: T3, Cytochrome P450 1A2 (Homo sapiens, UniProt P05177);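 also: PubChem cytochrome P450 panel assay, CYP1A2 panel member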
T3 sequence (P05177 whole entry): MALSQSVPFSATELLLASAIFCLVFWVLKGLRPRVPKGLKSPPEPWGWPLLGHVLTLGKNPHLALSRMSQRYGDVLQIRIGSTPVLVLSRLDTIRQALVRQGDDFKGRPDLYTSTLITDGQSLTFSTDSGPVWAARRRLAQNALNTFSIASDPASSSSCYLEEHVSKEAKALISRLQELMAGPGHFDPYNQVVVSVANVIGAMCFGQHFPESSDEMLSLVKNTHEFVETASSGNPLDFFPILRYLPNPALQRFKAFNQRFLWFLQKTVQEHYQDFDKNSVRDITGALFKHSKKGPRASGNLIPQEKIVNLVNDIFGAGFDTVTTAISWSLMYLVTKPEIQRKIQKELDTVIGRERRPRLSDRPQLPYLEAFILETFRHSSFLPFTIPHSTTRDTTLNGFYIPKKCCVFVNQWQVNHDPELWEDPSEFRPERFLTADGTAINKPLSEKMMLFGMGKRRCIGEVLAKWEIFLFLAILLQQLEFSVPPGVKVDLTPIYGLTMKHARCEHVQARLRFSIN

[3] = target: T4, Short transient receptor potential channel 4 (Mus musculus, UniProt Q9QUQ5); assay: mouse TRPC4 channel inhibitors, dose response, cell-based, HEK293 TRPC4/mu-opioid, Fluo-4 calcium (AID 434942); format: functional;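 also: potency of inhibitors blocking the TRPC4 calcium response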
T4 sequence (Q9QUQ5 whole entry): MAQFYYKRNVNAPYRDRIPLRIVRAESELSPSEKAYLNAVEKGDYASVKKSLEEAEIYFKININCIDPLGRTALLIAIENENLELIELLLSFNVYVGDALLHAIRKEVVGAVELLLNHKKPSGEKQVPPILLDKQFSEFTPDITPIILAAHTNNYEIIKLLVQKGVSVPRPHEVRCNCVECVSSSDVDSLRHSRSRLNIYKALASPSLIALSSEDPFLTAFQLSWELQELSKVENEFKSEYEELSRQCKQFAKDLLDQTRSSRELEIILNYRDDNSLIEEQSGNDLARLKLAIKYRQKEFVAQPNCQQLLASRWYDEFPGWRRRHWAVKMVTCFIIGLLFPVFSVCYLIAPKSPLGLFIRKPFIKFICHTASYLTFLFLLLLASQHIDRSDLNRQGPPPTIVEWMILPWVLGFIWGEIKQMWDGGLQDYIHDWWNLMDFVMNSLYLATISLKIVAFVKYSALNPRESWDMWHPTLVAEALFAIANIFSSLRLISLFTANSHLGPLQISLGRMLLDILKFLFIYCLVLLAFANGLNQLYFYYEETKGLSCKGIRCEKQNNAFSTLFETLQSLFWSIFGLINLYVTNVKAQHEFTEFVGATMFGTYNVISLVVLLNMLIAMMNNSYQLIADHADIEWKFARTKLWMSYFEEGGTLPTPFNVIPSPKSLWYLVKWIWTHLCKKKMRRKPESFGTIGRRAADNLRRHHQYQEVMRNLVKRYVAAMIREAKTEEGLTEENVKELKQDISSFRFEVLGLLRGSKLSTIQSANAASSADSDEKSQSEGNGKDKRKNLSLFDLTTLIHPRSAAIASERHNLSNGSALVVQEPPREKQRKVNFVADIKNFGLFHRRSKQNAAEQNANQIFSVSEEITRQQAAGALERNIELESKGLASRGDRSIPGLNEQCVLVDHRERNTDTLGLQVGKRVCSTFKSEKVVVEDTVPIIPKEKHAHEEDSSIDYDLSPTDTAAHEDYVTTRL

Protein Wnt-3a = Protein Wnt-3a (Mus musculus, UniProt P27467); assay: Wnt3a-driven reporter signaling inhibition, dose response, selectivity assay for Gli-SUFU antagonist project, Wnt-LIGHT cells, luminescence (AID 651570); format: functional; conditions: read-out: IC50_Mean;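 also: Wnt-LIGHT reporter cells stimulated with conditioned medium from Wnt3a-producing cells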
[4] = Luminescence Cell-Based Dose Response HTS to Identify Inhibitors of 5'UTR Stem-Loop Driven Prion Protein mRNA Translation in H4 Neuroglioblastoma Cells. [Related pubchem assays: 1827 (Project Summary), 1813 (Primary HTS)]; format: functional
[5] = target: T4, Short transient receptor potential channel 4; assay: mouse TRPC4 channel activators, dose response, cell-based, HEK293 TRPC4/mu-opioid, Fluo-4 calcium (AID 434937); format: functional
[6] = HepG2 cell cytotoxicity, dose response, cytotoxicity control for Shn3 inhibitor project, CellTiter-Glo, cherry-picked (AID 624134); format: functional, cell-based
[7] = inhibitors of firefly luciferase expression or activity, dose response, H4 neuroglioma cells, luminescence (AID 1990); format: functional, cell-based
[8] = control 3'UTR Renilla luciferase suppression, dose response, counter-screen for Shn3 inhibitor project, cell-based, Clone20-Shn3RL, cherry-picked (AID 624133); format: functional
[9] = inhibitors of SNCA 5'UTR-driven reporter translation, confirmation, H4 neuroglioma cells, luminescence (AID 1988); format: functional, cell-based
[10] = Shn3 3'UTR reporter inhibitors, dose response, cell-based, Clone20 osteoblasts, firefly luciferase, cherry-picked (AID 624132); format: functional;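 also: firefly luciferase luminescence from reporter carrying the Shn3 3'UTR in osteoblasts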
[11] = Luminescence Cell-Based Dose Retest to Confirm Inhibitors of Cancer Stem Cells. [Related pubchem assays (depositor defined):AID2717, AID2721]; format: functional; conditions: Homo sapiens
HEK293 [12] = assay: NOD2 signaling inhibitors in MDP-stimulated cells, cell-based, uHTS, luminescence (AID 2001); format: functional; conditions: Homo sapiens
HEK293 [13] = assay: NOD1 signaling inhibitors, primary screen, cell-based, luminescence, uHTS (AID 1578); format: functional; conditions: Homo sapiens
INS1 = assay: beta cell apoptosis inhibitors, cytokine rescue, dose response, luminescence, retest (AID 449756); format: functional, cell-based; conditions: Rattus norvegicus;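 also: cell death triggered by IL-1 beta plus TNF-alpha plus IFN-gamma mixture; protective hits raise ATP signal compared with cytokine alone wells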
[14] = target: Nucleotide-binding oligomerization domain-containing protein 2 (Homo sapiens, UniProt Q9HC29); assay: NOD2 signaling inhibitors, cell-based, luminescence, uHTS, HEK293 (AID 1566); format: functional
HEK293 [15] = assay: cells; format: functional, cell-based; conditions: Homo sapiens
HEK293 [16] = assay: cells; format: functional, cell-based; conditions: Homo sapiens; remark: listed apart in the source
HEK293 [17] = assay: cells; format: functional, cell-based; conditions: Homo sapiens; remark: listed apart in the source
[18] = target: Glyceraldehyde-3-phosphate dehydrogenase (Homo sapiens, UniProt P04406)
[19] = target: T5, Alkaline phosphatase, tissue-nonspecific isozyme (Homo sapiens, UniProt P05186); assay: human TNAP enzyme inhibitors, SAR follow-up, biochemical, luminescent, dose response (AID 1056)
T5 sequence (P05186 whole entry): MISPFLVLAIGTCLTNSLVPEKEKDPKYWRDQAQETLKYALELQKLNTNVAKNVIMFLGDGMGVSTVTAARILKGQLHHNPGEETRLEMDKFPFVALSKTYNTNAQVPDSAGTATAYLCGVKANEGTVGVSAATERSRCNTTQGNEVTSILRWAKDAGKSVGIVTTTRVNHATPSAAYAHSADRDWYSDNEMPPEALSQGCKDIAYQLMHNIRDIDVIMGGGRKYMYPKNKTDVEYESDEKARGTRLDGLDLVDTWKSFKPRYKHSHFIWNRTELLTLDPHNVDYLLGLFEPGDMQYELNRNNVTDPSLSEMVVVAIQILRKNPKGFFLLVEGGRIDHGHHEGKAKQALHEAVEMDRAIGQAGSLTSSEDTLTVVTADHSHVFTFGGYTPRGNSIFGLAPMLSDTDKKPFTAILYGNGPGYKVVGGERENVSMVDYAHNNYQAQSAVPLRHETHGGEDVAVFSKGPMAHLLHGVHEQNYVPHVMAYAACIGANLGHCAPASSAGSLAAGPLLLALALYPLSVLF

[20] = Vero E6 cell cytotoxicity, dose response, cytotoxicity control for non-replicating M. tuberculosis project, secondary assay (AID 492998); format: functional, VeroE6; conditions: Vero C1008
[21] = microbe, parasite or virus in culture; format: functional; conditions: Mycobacterium tuberculosis
[22] = THP-1 cell cytotoxicity, dose response, cytotoxicity control for non-replicating M. tuberculosis project (AID 489025); format: functional

Cytochrome P450 3A4, sequence (P08684 whole entry): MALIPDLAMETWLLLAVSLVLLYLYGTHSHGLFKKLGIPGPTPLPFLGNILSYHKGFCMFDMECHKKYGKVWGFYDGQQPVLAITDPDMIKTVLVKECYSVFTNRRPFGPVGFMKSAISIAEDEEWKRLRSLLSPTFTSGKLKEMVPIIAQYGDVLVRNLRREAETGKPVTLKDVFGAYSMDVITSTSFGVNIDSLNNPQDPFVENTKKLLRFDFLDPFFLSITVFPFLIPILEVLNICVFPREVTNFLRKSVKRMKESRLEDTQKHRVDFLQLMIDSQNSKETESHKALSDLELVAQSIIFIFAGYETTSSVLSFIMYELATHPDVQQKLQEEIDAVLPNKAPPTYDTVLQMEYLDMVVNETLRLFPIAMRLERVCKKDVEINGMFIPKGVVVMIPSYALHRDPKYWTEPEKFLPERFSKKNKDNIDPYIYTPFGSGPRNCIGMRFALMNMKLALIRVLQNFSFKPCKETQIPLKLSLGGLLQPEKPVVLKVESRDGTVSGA
Nucleotide-binding oligomerization domain-containing protein 2, sequence (Q9HC29 whole entry, the tested form may be a part): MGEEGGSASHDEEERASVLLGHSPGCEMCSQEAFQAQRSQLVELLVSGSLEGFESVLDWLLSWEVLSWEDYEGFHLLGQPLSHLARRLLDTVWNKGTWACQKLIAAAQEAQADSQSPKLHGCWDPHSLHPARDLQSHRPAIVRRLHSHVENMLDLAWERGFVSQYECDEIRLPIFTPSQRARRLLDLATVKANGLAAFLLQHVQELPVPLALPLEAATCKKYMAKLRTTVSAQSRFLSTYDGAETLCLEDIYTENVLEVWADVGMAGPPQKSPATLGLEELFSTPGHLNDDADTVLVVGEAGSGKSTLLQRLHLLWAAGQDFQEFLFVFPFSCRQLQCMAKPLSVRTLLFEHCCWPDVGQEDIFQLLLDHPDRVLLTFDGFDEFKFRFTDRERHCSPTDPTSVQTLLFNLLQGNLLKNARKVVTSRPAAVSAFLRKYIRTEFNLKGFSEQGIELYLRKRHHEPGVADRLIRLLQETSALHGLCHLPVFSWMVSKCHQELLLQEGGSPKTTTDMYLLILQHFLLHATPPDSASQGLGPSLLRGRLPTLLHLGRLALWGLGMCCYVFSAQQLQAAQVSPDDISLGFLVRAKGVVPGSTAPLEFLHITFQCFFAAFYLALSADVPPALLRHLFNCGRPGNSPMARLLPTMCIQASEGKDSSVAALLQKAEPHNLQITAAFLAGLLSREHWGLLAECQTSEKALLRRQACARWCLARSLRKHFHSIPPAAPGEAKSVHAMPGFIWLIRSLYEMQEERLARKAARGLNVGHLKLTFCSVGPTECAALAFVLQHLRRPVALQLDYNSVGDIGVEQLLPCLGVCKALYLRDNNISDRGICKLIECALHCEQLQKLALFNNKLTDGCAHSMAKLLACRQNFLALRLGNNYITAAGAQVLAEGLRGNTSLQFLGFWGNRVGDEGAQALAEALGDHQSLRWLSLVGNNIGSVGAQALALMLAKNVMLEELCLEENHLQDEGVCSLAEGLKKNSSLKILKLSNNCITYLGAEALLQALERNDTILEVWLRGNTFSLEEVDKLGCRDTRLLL
Protein Wnt-3a, sequence (P27467 whole entry): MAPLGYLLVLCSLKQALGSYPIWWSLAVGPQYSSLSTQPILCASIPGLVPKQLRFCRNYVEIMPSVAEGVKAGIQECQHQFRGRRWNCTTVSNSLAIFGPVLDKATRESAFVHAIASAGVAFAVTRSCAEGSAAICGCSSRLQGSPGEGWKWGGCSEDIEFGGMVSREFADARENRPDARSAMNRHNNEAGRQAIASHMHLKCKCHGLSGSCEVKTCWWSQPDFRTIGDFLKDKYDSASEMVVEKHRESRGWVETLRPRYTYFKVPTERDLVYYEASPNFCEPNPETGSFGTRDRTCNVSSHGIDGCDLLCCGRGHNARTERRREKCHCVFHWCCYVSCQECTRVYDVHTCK
Melanin-concentrating hormone receptor 1, sequence (Q99705 whole entry): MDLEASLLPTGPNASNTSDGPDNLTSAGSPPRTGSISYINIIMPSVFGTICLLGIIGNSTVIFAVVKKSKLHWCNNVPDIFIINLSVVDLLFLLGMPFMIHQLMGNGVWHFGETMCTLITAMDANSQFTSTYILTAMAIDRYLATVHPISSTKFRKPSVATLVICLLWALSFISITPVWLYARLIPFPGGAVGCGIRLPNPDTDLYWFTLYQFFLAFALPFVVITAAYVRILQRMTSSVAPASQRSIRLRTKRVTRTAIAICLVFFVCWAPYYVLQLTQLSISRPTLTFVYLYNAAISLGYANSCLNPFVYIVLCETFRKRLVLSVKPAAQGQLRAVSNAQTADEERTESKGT
Glyceraldehyde-3-phosphate dehydrogenase, sequence (P04406 whole entry): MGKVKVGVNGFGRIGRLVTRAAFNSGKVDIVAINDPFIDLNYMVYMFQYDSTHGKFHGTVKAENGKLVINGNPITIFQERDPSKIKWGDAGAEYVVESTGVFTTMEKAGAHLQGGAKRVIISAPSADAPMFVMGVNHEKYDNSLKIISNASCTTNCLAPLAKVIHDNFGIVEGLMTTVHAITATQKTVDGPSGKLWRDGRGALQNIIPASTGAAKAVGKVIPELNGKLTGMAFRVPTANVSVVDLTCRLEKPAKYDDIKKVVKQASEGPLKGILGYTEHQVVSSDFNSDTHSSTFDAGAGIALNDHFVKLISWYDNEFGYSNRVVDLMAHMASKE

With O=[N+]([O-])c1cncc([N+](=O)[O-])c1Nc1ccccc1Cl the IC50 (cells) was 8.86 µM (active) and the IC50 (Coagulation factor XII) was > 50 µM (inactive).
In the case of CCc1ccc(N(C(=O)c2csnn2)C(C(=O)NC2CCCCC2)c2ccncc2)cc1 (stereo not given), the IC50 [1] is reported as > 43.8 µM (not active) and the IC50 [2] is reported as > 43.8 µM (not active).
In the case of O=C(Nc1ccccc1)N1CCC2(CC1)CCN(C(=O)c1cccc(F)c1)CC2, the AC50 (Cytochrome P450 3A4) is reported as “inconclusive” and the AC50 (Cytochrome P450 1A2) is reported as 10 µM (inconclusive).
For COc1ccccc1NS(=O)(=O)c1cccc(C(=O)NC2CCN(Cc3ccccc3)CC2)c1, the EC50 [3] was 0.376 µM (active), the IC50 (Protein Wnt-3a) was 4.3 µM (active) and the EC50 [4] was > 120 µM (not active). For the same molecule, the EC50 [5] was 0.944 µM (active), the AC50 [6] was 0.52 µM (active) and the EC50 [7] was > 120 µM (not active). For the same molecule, the AC50 [8] was 1.8 µM (active), the EC50 [9] was > 120 µM (not active) and the AC50 [10] was 1.95 µM (active).
For Cn1cccc1C(=O)N1CCC2(CC1)CCN(C(c1ccccc1)c1ccccc1)CC2, the AC50 (Cytochrome P450 3A4) was “inconclusive” and the AC50 (Cytochrome P450 1A2) was 5.01 µM (inconclusive).
With CC(C)(C)C1CCC2(CC1)C(C#N)=C(SCC(=O)NC1CCCCC1)NC(=O)C2C#N (stereo not given) the AC50 [11] was 6.34 µM (active), the IC50 (HEK293 [12]) was 9.18 µM (active) and the EC50 (HEK293 [13]) was 6.58 µM (active). For the same molecule, the AC50 (INS1) was 8.73 µM (active), the EC50 [14] was 17.6 µM (active) and the IC50 (HEK293 [15]) was 9.32 µM (active). The IC50 (HEK293 [16]) was > 20 µM (inactive) and the IC50 (HEK293 [17]) was 13.6 µM (active).
With O=c1c(-c2ccc(Cl)cc2)nc2cnc(N3CCOCC3)nc2n1CCc1ccccc1 the AC50 (Cytochrome P450 3A4) was “inconclusive” and the AC50 (Cytochrome P450 1A2) was 2 µM (inconclusive).
In the case of COC(=O)c1ccc(Nc2nc(C)cc(=O)[nH]2)cc1, the IC50 (Coagulation factor XII) is reported as > 50 µM (inactive).
In the case of O=C(Nc1ccccc1Cl)C1CC(=O)N(c2ccccc2)C1 (stereo not given), the IC50 (Coagulation factor XII) is reported as > 50 µM (inactive).
With COc1ccc(S(=O)(=O)Nc2ccc3ccccc3c2)cc1OC the IC50 [18] was > 100 µM (not active) and the IC50 [19] was > 100 µM (inactive).
With N#Cc1cccc(NC(=O)N2CCC3(CC2)CCN(C(=O)c2cccc(F)c2)CC3)c1 the AC50 (Cytochrome P450 3A4) was “inconclusive”.
With CCCCn1c(=O)c(C(=O)Nc2ncccc2C)c(O)c2ccccc21 the IC50 (cells) was 17.3 µM (active), the CC50 [20] was > 20 µM (active) and the CC50 [21] was 29.3 µM (active). The CC50 [22] was > 40 µM (active).
In the case of CC1CCCN(CCOCCOc2ccccc2-c2ccccc2)C1 (stereo not given), the EC50 [3] is reported as 0.335 µM (active) and the EC50 [5] is reported as 0.421 µM (active).
For COc1ccc2c(c1)CCc1c(C(=O)NCc3ccc(F)cc3)noc1-2, the IC50 (Coagulation factor XII) was 3.61 µM (active).
In the case of CCOc1ccc(C(C)(C)C)cc1S(=O)(=O)Nc1cccnc1, the IC50 [19] is reported as 12.5 µM (active).
